Measured values taken from the Deep4Chem optical property database.

Assay: solvent given as SMILES

**Q.** For `[C-]#[N+]c1ccc(-c2ccc(N)cc2)cc1`, which absorption maximum (in C1CCCCC1) is on record?
**A.** The absorption maximum was 302 nm.

**Q.** And the absorption maximum (in C1CCOC1)?
**A.** Its absorption maximum is 319 nm.

**Q.** What about the absorption maximum (in C1COCCO1) of the same compound?
**A.** Its absorption maximum is 315 nm.

**Q.** And the absorption maximum (in CC#N)?
**A.** The absorption maximum was 310 nm.

**Q.** And the absorption maximum (in CC(C)=O)?
**A.** Its absorption maximum is 329 nm.

**Q.** And the absorption maximum (in CCCCCC)?
**A.** Its absorption maximum is 301 nm.

**Q.** And the absorption maximum (in CCOC(C)=O)?
**A.** Its absorption maximum is 315 nm.

**Q.** And the absorption maximum (in CN(C)C=O)?
**A.** The absorption maximum was 314 nm.

**Q.** And the absorption maximum (in CO)?
**A.** The absorption maximum was 308 nm.

**Q.** And the absorption maximum (in CS(C)=O)?
**A.** The absorption maximum was 318 nm.

**Q.** What about the absorption maximum (in Cc1ccccc1) of the same compound?
**A.** Its absorption maximum is 310 nm.

**Q.** And the absorption maximum (in ClC(Cl)Cl)?
**A.** Its absorption maximum is 305 nm.

**Q.** What about the absorption maximum (in ClCCl) of the same compound?
**A.** The absorption maximum was 307 nm.

**Q.** And the absorption maximum (in O)?
**A.** The absorption maximum was 298 nm.

**Q.** What about the absorption maximum (in c1ccncc1) of the same compound?
**A.** The absorption maximum was 325 nm.

**Q.** With `c1ccc(-c2nc(-c3ccc(-c4nc(-c5ccccc5)c(-c5ccccc5)o4)cc3)oc2-c2ccccc2)cc1` as the compound, how does the absorption maximum (in C1COCCO1) read?
**A.** The absorption maximum was 358 nm.

**Q.** What does the source list for `COc1ccc2c(c1)-c1cc(OC)ccc1C2=O`?
**A.** absorption maximum (in C1CCCCC1): 361 nm; absorption maximum (in CC#N): 376 nm; absorption maximum (in CCO): 382 nm

**Q.** With `CC(C)(C)c1cc(-c2ccc(-c3cccs3)s2)c2c(c1)c1cc(C(C)(C)C)cc(-c3ccc(-c4cccs4)s3)c1n2-c1ccc(-c2cccs2)s1` as the compound, how does the absorption maximum (in ClCCl) read?
**A.** Its absorption maximum is 340 nm.

**Q.** For `C[Si]1(C)O[Si](C)(C)c2cc3nc4ccccc4c(-c4ccccc4)c3cc2[Si](C)(C)O1`, which absorption maximum (in ClCCl) is on record?
**A.** Its absorption maximum is 368 nm.

**Q.** Which absorption maximum (in C1CCCCC1) does the source give for `COOCc1noc(-c2ccccc2)c1Cl` here?
**A.** The absorption maximum was 277 nm.

**Q.** With `O=c1oc2ccccc2cc1-c1ccc(-c2ccc(-c3cc4ccccc4oc3=O)cc2)cc1` as the compound, how does the absorption maximum (in ClCCl) read?
**A.** Its absorption maximum is 341 nm.

**Q.** Which absorption maximum (in C1CCOC1) does the source give for `COc1ccc(-c2cc3c(s2)-c2sc(-c4ccc(OC)cc4)cc2P(c2ccccc2)(c2ccccc2)=[O+][B-]3(c2c(C)cc(C)cc2C)c2c(C)cc(C)cc2C)cc1` here?
**A.** The absorption maximum was 415 nm.

**Q.** What does the source list for `O=C(O)C1=CC(=C/C=[N+]2/c3cc(O)c(C[C@@H]4O[C@H](CO)[C@@H](O)C(O)[C@H]4O)cc3C[C@H]2C(=O)O)C=C(C(=O)O)N1` (stereo partly specified)?
**A.** absorption maximum (in CO): 467 nm; absorption maximum (in O): 468 nm; absorption maximum (in OCCO): 476 nm; absorption maximum (in [2H]O[2H]): 468 nm

**Q.** Which absorption maximum (in c1ccccc1) does the source give for `Cc1nc2c(ccc3ccccc32)oc1=O` here?
**A.** Its absorption maximum is 364 nm.

**Q.** With `C1=[N+](c2ccccc2)[B-](c2ccccc2)(c2ccccc2)Oc2c1ccc1c3c(ccc21)C=[N+](c1ccccc1)[B-](c1ccccc1)(c1ccccc1)O3` as the compound, how does the absorption maximum (in Cc1ccccc1) read?
**A.** Its absorption maximum is 536 nm.

**Q.** What about the absorption maximum (in ClCCl) of the same compound?
**A.** Its absorption maximum is 529 nm.

**Q.** What does the source list for `O=C1C=C(Nc2ccccc2F)C(=O)c2ccccc21`?
**A.** absorption maximum (in CCCCCC): 442 nm; absorption maximum (in CO): 448 nm

**Q.** With `O=C(c1ccncc1)c1ccc(-n2c3ccccc3c3ccccc32)cc1` as the compound, how does the absorption maximum (in C1CCOC1) read?
**A.** Its absorption maximum is 353.15 nm.

**Q.** What about the absorption maximum (in CCCCCC) of the same compound?
**A.** Its absorption maximum is 354.95 nm.

**Q.** And the absorption maximum (in Cc1ccccc1)?
**A.** Its absorption maximum is 359 nm.

**Q.** And the absorption maximum (in ClCCl)?
**A.** The absorption maximum was 359.23 nm.

**Q.** With `Cc1ccc2occ(CC(=O)NN)c2c1` as the compound, how does the absorption maximum (in C1CCOC1) read?
**A.** The absorption maximum was 292 nm.

**Q.** What about the absorption maximum (in CC#N) of the same compound?
**A.** The absorption maximum was 289 nm.

**Q.** And the absorption maximum (in CC(C)=O)?
**A.** Its absorption maximum is 293 nm.

**Q.** And the absorption maximum (in CCCCO)?
**A.** The absorption maximum was 290 nm.

**Q.** And the absorption maximum (in CCCO)?
**A.** The absorption maximum was 281 nm.

**Q.** What about the absorption maximum (in CCO) of the same compound?
**A.** Its absorption maximum is 283 nm.

**Q.** And the absorption maximum (in CCOC(C)=O)?
**A.** Its absorption maximum is 296 nm.

**Q.** What about the absorption maximum (in CN(C)C=O) of the same compound?
**A.** The absorption maximum was 313 nm.

**Q.** And the absorption maximum (in CO)?
**A.** Its absorption maximum is 279 nm.

**Q.** And the absorption maximum (in ClCCl)?
**A.** The absorption maximum was 284 nm.

**Q.** With `CCOC(=O)c1c(-c2cc3ccc(OCC=C(C)C)cc3oc2=O)nn(-c2ccccc2)c1C(=O)OCC` as the compound, how does the absorption maximum (in ClCCl) read?
**A.** The absorption maximum was 341 nm.

**Q.** For `CCn1c2ccccc2c2cc(/C=C/c3cc(/C=C/c4ccc5c(c4)c4ccccc4n5CC)nc(SC)n3)ccc21`, which absorption maximum (in C1CCOC1) is on record?
**A.** Its absorption maximum is 406 nm.

**Q.** What about the absorption maximum (in CCOC(C)=O) of the same compound?
**A.** The absorption maximum was 402 nm.

**Q.** What about the absorption maximum (in CN(C)C=O) of the same compound?
**A.** Its absorption maximum is 413 nm.

**Q.** What about the absorption maximum (in Cc1ccccc1) of the same compound?
**A.** The absorption maximum was 405 nm.

**Q.** What about the absorption maximum (in ClCCl) of the same compound?
**A.** The absorption maximum was 409 nm.

**Q.** With `CC(=O)OCCN1C(=O)c2cccc3c(Oc4ccc(C#N)cc4)ccc(c23)C1=O` as the compound, how does the absorption maximum (in ClC(Cl)Cl) read?
**A.** Its absorption maximum is 351 nm.

**Q.** With `CCOC(=O)c1ccccc1-c1c2ccc(=O)cc-2oc2cc(OC(=O)[C@H](CO[Si](C)(C)C(C)(C)C)NC(=O)OC(C)(C)C)ccc12` as the compound, how does the absorption maximum (in C1CCOC1) read?
**A.** The absorption maximum was 428 nm.

**Q.** And the absorption maximum (in CC#N)?
**A.** The absorption maximum was 445 nm.

**Q.** And the absorption maximum (in CCO)?
**A.** The absorption maximum was 433 nm.

**Q.** And the absorption maximum (in CS(C)=O)?
**A.** Its absorption maximum is 449 nm.

**Q.** Which results are given for `C[P+]1(c2ccccc2)C2=C(c3ccccc31)S(=O)(=O)c1ccccc12` (stereo unspecified)?
**A.** absorption maximum (in CC#N): 388 nm; absorption maximum (in CCO): 319 nm; absorption maximum (in ClCCl): 395 nm

**Q.** With `CC1(C)OB(c2ccc3ccc4cccc5ccc2c3c45)OC1(C)C` as the compound, how does the absorption maximum (in Cc1ccccc1) read?
**A.** The absorption maximum was 378 nm.

**Q.** With `Nc1ccc(/C=C/c2ccc3ccccc3c2)cc1` as the compound, how does the absorption maximum (in CC#N) read?
**A.** The absorption maximum was 348 nm.

**Q.** What about the absorption maximum (in CCCCCC) of the same compound?
**A.** Its absorption maximum is 342 nm.

**Q.** With `C(=C\c1ccc(-c2nnc(-c3ccc(/C=C/c4ccc(-c5nc(-c6ccccc6)c(-c6ccccc6)[nH]5)cc4)cc3)o2)cc1)/c1ccc(-c2nc(-c3ccccc3)c(-c3ccccc3)[nH]2)cc1` as the compound, how does the absorption maximum (in C1CCOC1) read?
**A.** The absorption maximum was 396 nm.

**Q.** What about the absorption maximum (in CC#N) of the same compound?
**A.** The absorption maximum was 391 nm.

**Q.** What about the absorption maximum (in CN(C)C=O) of the same compound?
**A.** Its absorption maximum is 397 nm.

**Q.** And the absorption maximum (in Cc1ccccc1)?
**A.** Its absorption maximum is 397 nm.

**Q.** For `COc1cc(F)c(C(=O)c2cc(F)c(OC)cc2F)cc1F`, which absorption maximum (in CCO) is on record?
**A.** The absorption maximum was 301 nm.

**Q.** With `CCn1c2ccccc2c2cc(-c3cc(-c4ccc5c(c4)c4ccccc4n5CC)ncn3)ccc21` as the compound, how does the absorption maximum (in C1CCOC1) read?
**A.** The absorption maximum was 360 nm.

**Q.** And the absorption maximum (in CCOC(C)=O)?
**A.** The absorption maximum was 359 nm.

**Q.** And the absorption maximum (in CN(C)C=O)?
**A.** Its absorption maximum is 363 nm.

**Q.** And the absorption maximum (in Cc1ccccc1)?
**A.** Its absorption maximum is 360 nm.

**Q.** And the absorption maximum (in ClCCl)?
**A.** Its absorption maximum is 360 nm.

**Q.** For `C[C@]12SC(=O)C=C1c1nc(-c3ccccc3)[nH]c1C1=CC(=O)S[C@@]12C`, which absorption maximum (in CC#N) is on record?
**A.** The absorption maximum was 460 nm.

**Q.** Which absorption maximum (in CN(C)C=O) does the source give for `CCN(CC)c1ccc(/C=C2\CC/C(=C\c3ccc(N(c4ccccc4)c4ccccc4)cc3)C2=C(C#N)C#N)cc1` here?
**A.** The absorption maximum was 579 nm.
